Laboratory results as given in US9283277B2, “Methods and compositions for the treatment of obesity” (Children's Medical Center Corporation, priority 2008, dated 2016).

Columns and labels:
ob/ob mice [1] = experiment: PBA pretreatment and leptin administration in ob/ob mice; assay type: in vivo; details: for initial body weight: vehicle or PBA pretreated
Procedure: Nine-week old lean wt and ob/ob mice were orally treated with either PBA (1 g/kg/day) or vehicle (VEH) for 26 days and PERK (Thr980) phosphorylation is examined in the hypothalamus extracts with direct immunoblotting. (B) Ten week-old wt lean and ob/ob mice were intraperitoneally injected with leptin (0.1 mg/kg) after six-hour starvation. Hypothalami were removed 30 minutes after the injections, and pStat3^Tyr705 and total Stat3 levels were examined. (C) Nine-week old lean wt and ob/ob mice were orally treated with PBA (1 g/kg/day) for 10 days. Following the pretreatment period, leptin-deficient ob/ob mice were either administered with VEH or with different doses of leptin through the intraperitoneal route. The effect of VEH or PBA administration on (C) bodyweight (g), (D) percent decrease in bodyweight and (E) 24-hour food intake (n=3 for VEH and n=4 PBA-treated group). Effect of 5 mg/kg/day leptin administration on (F) bodyweight, (G) percent decrease in bodyweight and (H) 24-hour food intake in VEH- or PBA-treated ob/ob mice (n=3 for VEH and n=4 PBA-treated group). Analysis of the same parameters (body weight, percent decrease in bodyweight and 24-hour food intake) in (I, J, K) 1 mg/kg/day and (L, M, N) 0.1 mg/kg/day leptin-treated mice (n=3 for VEH and n=4 PBA-treated group). Data presented as means±SEM (*p<0.05, **p<0.01, ***p<0.001).
To test whether reduction of ER stress will increase leptin sensitivity of the ob/ob mice, we orally administered PBA or vehicle for 10 days as a pretreatment. Following this period, daily leptin injections (IP) were given at doses ranging from 0.01 mg/kg/day to 5 mg/kg/day. […]

ob/ob mice [2] = experiment: TUDCA pretreatment and leptin in ob/ob mice (bodyweight, metabolic cage, DEXA); assay type: in vivo
Procedure: (a) Hypothalamic PERK phosphorylation (Thr980) after 21 days of vehicle or TUDCA (150 mg/kg/day) treatment. Following a five-day pretreatment with TUDCA (150 mg/kg/day) or vehicle, nine-ten week old ob/ob mice were treated either with leptin (1 mg/kg/day) or vehicle. (b) Body weight (g), (c) % decrease in body weight, (d) daily food intake of the ob/ob mice during 18 days of treatment period with the indicated regimens. (e) Blood glucose (mg/dl) levels at the 18th day of treatment. Metabolic cage studies were performed; (f) CO2 production (ml/kg/hr), (g) O2 consumption (ml/kg/hr), (h) Respiratory exchange ratio (VCO2/VO2), (i) X-axis ambulatory activity, (j) Heat generation (kcal/hr). Dexa scan analysis of (k) total fat amount (g), (l) fat % and (m) lean body mass (g). C57BL/6 male wt mice were kept on HFD feeding for 32 weeks and following a five day acclimation period were pretreated with TUDCA (150 mg/kg/day) for five days. At the end of pretreatment period intraperitoneal vehicle and leptin (1 mg/kg/day) treatments were started. (n) Body weight (g), (o) % decrease in bodyweight of the HFD-fed mice during the 16-day treatment. (n=6 for VEH, n=7 for Lep, n=7 for TUD, n=8 for TUD+Lep group). Error bars are ±S.E.M., P values are determined by Student's t-test. (*p<0.05, **p<0.01, ***p<0.001)
If the postulate that reduction of ER stress in the hypothalamus increases leptin sensitivity is true, chemical chaperones other than PBA should also create the same effect and sensitize the obese mice to leptin. TUDCA is a hydrophilic bile acid, which has a completely different structure than PBA, but has chemical chaperone activity in common^25. First, we investigated whether TUDCA can reduce ER stress in the hypothalamus of the ob/ob mice. For this purpose we treated ob/ob mice either with vehicle or TUDCA (150 mg/kg/day) for a period of 21 days and analyzed the hypothalamic PERK phosphorylation. […] To address this question we first pretreated the ob/ob mice with TUDCA (150 mg/kg/day) for 5 days and subsequently initiated leptin (1 mg/kg) treatment. […] Body weight of the ob/ob mice decreased further with leptin and TUDCA co-treatment and reached to 34.39±1.30 g from 50.55±1.14 g (Lep vs. TUD+Lep, p<0.001). […] Furthermore, to investigate the metabolic homeostasis in more detail, we placed the mice in metabolic cages. […] Heat generation was the same between the groups (FIG. 5j). Next, we analyzed the whole body fat composition by DEXA scan. […] Finally, analysis of lean mass has shown that none of the treatments lead to a significant change in this parameter ([…]). We additionally investigated the effect of TUDCA and leptin co-treatment on C57BL/6 wt-lean mice.
We next tested the efficacy of TUDCA as a leptin sensitizer in the HFD-induced obesity model. In this experiment we used 35 weeks old and C57BL/6 wt mice, which were kept on HFD-feeding for 32 weeks. We divided the mice into two groups for TUDCA and TUDCA-leptin co-treatment. Body weight of the mice in this cohort was between 35-52 g. We specifically chose the mice with the highest bodyweight for TUDCA and leptin co-treatment group to investigate whether leptin will become effective in these severely obese mice when administered along with the TUDCA. The initial body weight of the TUDCA group was 38.33±1.16 (g) and TUDCA+leptin group was 48.46±1.82 (g) (FIG. 5n). […]

[3] = oral PBA 1 g/kg/day alone vs vehicle
[4] = leptin 1 mg/kg/day IP, vehicle or PBA (1 g/kg/day) pretreated
[5] = leptin 5 mg/kg/day IP, 16 days, vehicle or PBA (1 g/kg/day) pretreated

For `O=C(O)CCCc1ccccc1` [PBA, 4-phenyl butyric acid], the leptin sensitization (ob/ob mice [1]; PBA + 0.1 mg/kg/day leptin gives weight loss equivalent to 1 mg/kg/day leptin alone) was “ten-fold”, the body weight (ob/ob mice [1]; [3]) was “did not affect” and the food consumption (ob/ob mice [1]; [3]) was “did not affect”.

`C[C@H](CCC(=O)NCCS(=O)(=O)O)[C@H]1CC[C@H]2[C@@H]3[C@@H](O)C[C@@H]4C[C@H](O)CC[C@]4(C)[C@H]3CC[C@]12C` [TUDCA, tauroursodeoxycholic acid] was tested, and the blood glucose levels (ob/ob mice [2]; 18th day of treatment, TUDCA 150 mg/kg/day, leptin 1 mg/kg/day) was “lowered” and the body weight (ob/ob mice [2]; TUDCA 150 mg/kg/day alone) was “did not decrease”.

With “leptin: adipocyte-derived hormone that suppresses appetite” the initial body weight (ob/ob mice [2]; before leptin 1 mg/kg, with or without TUDCA 150 mg/kg/day) was 50.50 ± 0.55 g, the “percent decrease from the initial body weight” value (ob/ob mice [2]; leptin 1 mg/kg/day, 18 days, with or without TUDCA 150 mg/kg/day) was 9.27±1.34% and the “body weight after treatment” value (ob/ob mice [2]; leptin 1 mg/kg/day, 18 days, with or without TUDCA 150 mg/kg/day (5 days pretreatment)) was 43.75 ± 0.22 g. For the same compound, the initial body weight (ob/ob mice [1]; before leptin 1 mg/kg/day) was 57.10 ± 0.58 g, the initial body weight (ob/ob mice [1]; before leptin 5 mg/kg/day) was 56 ± 1.16 g and the “effect on body weight” value (ob/ob mice [1]; leptin 0.1 mg/kg/day IP alone (vehicle pretreated)) was “did not significantly reduce”. The “body weight after treatment” value (ob/ob mice [1]; [4]) was 46.61 ± 0.52 g, the decrease in bodyweight (ob/ob mice [1]; [4]) was 17.73% and the food intake (ob/ob mice [1]; leptin 5 mg/kg/day IP after 10 days vehicle or PBA (1 g/kg/day) pretreatment) was “significantly inhibited”. For the same compound, the “body weight after treatment” value (ob/ob mice [1]; [5]) was 41.13 ± 2.35 g and the “decrease in bodyweight from the initial weight” value (ob/ob mice [1]; [5]) was 27.33±2.65%.
